Test results: ChEMBL document CHEMBL1135219, “Anti-HIV-1 activities and pharmacokinetics of new arylpiperazinyl fluoroquinolones” (Bioorg Med Chem Lett, 2002)

What was measured:
MT4 [1] = assay: The compound was tested for cytotoxicity against mock-infected MT-4 cells.; assay type: functional; conditions: Homo sapiens
MT4 [2] = assay: The compound was tested against HIV-1(IIIB) replication on the inhibition of virus -induced cytopathogenicity in MT-4 cells.; assay type: functional, cell-based; conditions: Homo sapiens
[3] = Time for peak concentration (tmax) at a dose of 20 mg/kg in rats; assay type: ADME, organism-based; set-up: dose 20 mg/kg; conditions: rat, in vivo
[4] = Peak concentration (Cmax) at a dose of 20 mg/kg in rats; assay type: ADME, organism-based; set-up: dose 20 mg/kg; conditions: rat, in vivo
MT4 [5] = assay: The compound was tested for cytotoxicity against mock-infected MT-4 cells; assay type: functional; conditions: Homo sapiens
MT4 [6] = assay: The compound was tested against HIV-1(IIIB) replication on the inhibition of virus -induced cytopathogenicity in MT-4 cells; assay type: functional, cell-based; conditions: Homo sapiens
[7] = Area under curve was determined using trapezoidal rule after oral administration in cynomolgus monkeys; assay type: ADME; conditions: cercopithecidae, in vivo
[8] = Half-life period after intravenous administration in cynomolgus monkeys; assay type: ADME, organism-based; conditions: cercopithecidae, in vivo
[9] = Half-life period after oral administration in cynomolgus monkeys; assay type: ADME, organism-based; conditions: cercopithecidae, in vivo
[10] = The peak concentration (Cmax) value after oral administration in cynomolgus monkeys; assay type: ADME, organism-based; set-up: route oral; conditions: cercopithecidae, in vivo
[11] = Bioavailability was reported in cynomolgus monkeys (ratio of AUC in oral administration to that of intravenous administration); assay type: ADME, organism-based; conditions: cercopithecidae, in vivo, read-out: BA
[12] = The distribution volume after intravenous administration in cynomolgus monkeys; assay type: ADME, organism-based; conditions: cercopithecidae, in vivo, read-out: Vdss
[13] = The time for peak concentration value after oral administration in cynomolgus monkeys; assay type: ADME, organism-based; conditions: cercopithecidae, in vivo
[14] = Mean residence time was determined after intravenous administration in cynomolgus monkeys; assay type: ADME, organism-based; conditions: cercopithecidae, in vivo
[15] = Area under curve was determined using trapezoidal rule after intravenous administration in cynomolgus monkeys; assay type: ADME; conditions: cercopithecidae, in vivo
[16] = The total clearance was determined after intravenous administration in cynomolgus monkeys; assay type: ADME, organism-based; conditions: cercopithecidae, in vivo, read-out: CLtotal (converted)
[17] = Peak concentration (Cmax) at a dose of 10 mg/kg in rats; assay type: ADME, organism-based; set-up: dose 10 mg/kg; conditions: rat, in vivo
[18] = Time for peak concentration (tmax) at a dose of 10 mg/kg in rats; assay type: ADME, organism-based; set-up: dose 10 mg/kg; conditions: rat, in vivo

Tmax [3]	Cmax [4]	SMILES	CC50 (MT4 [1])	IC50 (MT4 [2])	CC50 (MT4 [5])	IC50 (MT4 [6])	other results
2 h	6740 ng/mL	CCn1cc(C(=O)O)c(=O)c2cc(F)c(N3CCN(c4ccccn4)CC3)c(C(F)(F)F)c21	370 nM	26 nM	–	–	–
–	–	COc1ccccc1N1CCN(c2c(F)cc3c(=O)c(C(=O)O)cn(C)c3c2C(F)F)CC1	–	–	11000 nM	350 nM	–
1 h	26400 ng/mL	Cn1cc(C(=O)O)c(=O)c2cc(F)c(N3CCN(c4ccccn4)CC3)c(C(F)(F)F)c21	220 nM	14 nM	–	–	AUC [7]: 17200 ng·h/mL; half-life [8]: 8.8 h; half-life [9]: 7.5 h; Cmax [10]: 1400 ng/mL; bioavailability [11]: 93.5%; Vd [12]: 0.509 L/kg; Tmax [13]: 2 h; MRT [14]: 9.3 h; AUC [15]: 18400 ng·h/mL; clearance [16]: 0.928 mL/min/kg
2 h	5460 ng/mL	CCn1cc(C(=O)O)c(=O)c2cc(F)c(N3CCN(c4ncccn4)CC3)c(C(F)(F)F)c21	1500 nM	95 nM	–	–	–
1 h	58500 ng/mL	Cn1cc(C(=O)O)c(=O)c2cc(F)c(N3CCN(c4ncccn4)CC3)c(C(F)(F)F)c21	890 nM	49 nM	–	–	AUC [7]: 18400 ng·h/mL; half-life [8]: 7.6 h; half-life [9]: 8.7 h; Cmax [10]: 1500 ng/mL; bioavailability [11]: 112%; Vd [12]: 0.491 L/kg; Tmax [13]: 4 h; MRT [14]: 8.2 h; AUC [15]: 16400 ng·h/mL; clearance [16]: 1.08 mL/min/kg
–	–	CCn1cc(C(=O)O)c(=O)c2cc(F)c(N3CCN(c4ccccn4)CC3)c(C(F)F)c21	–	–	4100 nM	890 nM	–
–	–	CCn1cc(C(=O)O)c(=O)c2cc(F)c(N3CCN(c4ccccc4OC)CC3)c(C(F)(F)F)c21	750 nM	110 nM	–	–	–
–	–	O=C(O)c1cn(C2CC2)c2c(C(F)F)c(N3CCN(c4ncccn4)CC3)c(F)cc2c1=O	–	–	21000 nM	3700 nM	–
–	–	COc1ccccc1N1CCN(c2c(F)cc3c(=O)c(C(=O)O)cn(C4CC4)c3c2C(F)F)CC1	12000 nM	560 nM	–	–	–
–	–	O=C(O)c1cn(C2CC2)c2c(C(F)F)c(N3CCN(c4ccccn4)CC3)c(F)cc2c1=O	–	–	9200 nM	490 nM	–
2 h	5830 ng/mL	O=C(O)c1cn(C2CC2)c2c(C(F)(F)F)c(N3CCN(c4ccccn4)CC3)c(F)cc2c1=O	1400 nM	65 nM	–	–	half-life [8]: 0.7 h; Cmax [10]: 100 ng/mL; bioavailability [11]: 4.3%; Vd [12]: 0.225 L/kg; Tmax [13]: 2 h; MRT [14]: 0.8 h; AUC [15]: 3500 ng·h/mL; clearance [16]: 4.89 mL/min/kg
–	–	CCn1cc(C(=O)O)c(=O)c2cc(F)c(N3CCN(c4ncccn4)CC3)c(C(F)F)c21	20000 nM	470 nM	–	–	–
–	–	Cn1cc(C(=O)O)c(=O)c2cc(F)c(N3CCN(c4ncccn4)CC3)c(C(F)F)c21	13000 nM	310 nM	–	–	–
–	–	Cn1cc(C(=O)O)c(=O)c2cc(F)c(N3CCN(c4ccccn4)CC3)c(C(F)F)c21	–	–	9200 nM	240 nM	–
–	–	CCn1cc(C(=O)O)c(=O)c2cc(F)c(N3CCN(c4ccccc4OC)CC3)c(C(F)F)c21	–	–	8300 nM	220 nM	–
4 h	3460 ng/mL	COc1ccccc1N1CCN(c2c(F)cc3c(=O)c(C(=O)O)cn(C4CC4)c3c2C(F)(F)F)CC1	870 nM	69 nM	–	–	–
1 h	7020 ng/mL	O=C(O)c1cn(C2CC2)c2c(C(F)(F)F)c(N3CCN(c4ncccn4)CC3)c(F)cc2c1=O	5200 nM	190 nM	–	–	–
–	–	COc1ccccc1N1CCN(c2c(F)cc3c(=O)c(C(=O)O)cn(C)c3c2C(F)(F)F)CC1	500 nM	54 nM	–	–	Cmax [17]: 2770 ng/mL; Tmax [18]: 2 h
